Measurements as given in US8329940B2, “18β-glycyrrhetinic acid derivatives and synthetic method thereof” (Kaohsiung Medical University, priority 2009, dated 2012).
Read-outs that look alike come from different tables or passages of the source.

Columns and labels:
[1] = system: TNF-a formation from RAW 264.7 cells stimulated with LPS; settings: for % of inhibition of TNF-a formation (in parentheses): at the highest concentration, RAW 264.7, LPS
Procedure: Nitric oxide (NO) in the cell medium is determined by the Griess reaction. In Western blot analysis, cells are washed with PBS twice and harvested in Laemmli sodium dodecyl sulfate (SDS) sample buffer to lyse the cells. Cell lysates are separated by 10% SDS-PAGE, and electrophoretically transferred to the poly(vinylidene difluoride) membranes. Membranes are blocked for 1 h at room temperature in TBST buffer (10 mM Tris-HCl, pH 8.0, 150 mM NaCl and 0.1% Tween 20) containing 5% nonfat milk. Membranes are washed with TBST buffer and then incubated with a monoclonal anti-iNOS antibody (1:1000 dilution) for 1 h. Following washed with TBST buffer, horseradish peroxidase-labeled anti-mouse IgG (1:10,000 dilution) is added therein at room temperature for 1 h. The blots are developed using ECL Western blotting reagents. Secretory levels of TNF-a in culture supernatants are determined by the EIA kit according to the procedure of manufacturer.

[2] = system: accumulation of NO2− in RAW 264.7 cells stimulated with LPS; test: Nitrite (NO2−) accumulation in RAW 264.7 cells stimulated with LPS (Griess reaction); assay type: cell-based, Murine; settings: for IC50: RAW 264.7 cells stimulated with LPS, 24 h, read-out: IC50 (B) accumulation of NO2− in RAW 264.7; for % of inhibition of NO2− accumulation (in parentheses): at the highest concentration, RAW 264.7, LPS
Procedure: Nitrite is a stable metabolite of NO in the media based on Griess reaction. […] To determine whether the inhibition of NO production in RAW 264.7 cells is attributed to the decrease of iNOS protein expression, Western blotting analysis is performed. Unstimulated cells expressed very low level of iNOS protein, whereas LPS 50 ng/mL induced a large amount of iNOS protein expression. […] Thus, the blockade of iNOS transcription has a critical role as evidenced from the parallelism of the inhibition of NO production and iNOS protein expression by compound 14.

[3] = system: superoxide anion formation from rat neutrophils stimulated with fMLP/CB; test: Superoxide anion formation in rat neutrophils stimulated by fMLP/CB; assay type: cell-based; settings: for % of inhibition of superoxide anion formation, fMLP/CB (in parentheses): at the highest concentration, rat neutrophils; for IC50: rat neutrophils stimulated with fMLP (0.3 μM)/CB (5 μg/mL), 30 min
Procedure: Compound stock solution (30 mM in DMSO) is prepared and stored at −25° C. before experiment. In the superoxide anion generation experiments, neutrophils isolated from the peripheral blood of the rats are stimulated with formyl-Met-Leu-Phe (fMLP, 0.3 μM)/Cytochalasin B (CB, 5 μg/mL) for 30 min in the presence of cytochrome c, and the superoxide anion generation is measured in terms of superoxide dismutase-inhibitable cytochrome c reduction.

[4] = system: superoxide anion formation from rat neutrophils stimulated with PMA; test: Superoxide anion formation in rat neutrophils stimulated by PMA; assay type: cell-based; settings: for % of inhibition of superoxide anion formation, PMA (in parentheses): at the highest concentration, rat neutrophils; for IC50: rat neutrophils stimulated with PMA
plasmid pBR322DNA = test: Inhibition of oxidative DNA damage by O2− from xanthine/xanthine oxidase (agarose gel electrophoresis); settings: 500 μM compound, xanthine (2 mM)/xanthine oxidase (0.7 U/mL), 20 min, 37° C.
Procedure: A mixture of the plasmid pBR322DNA ([…]) and xanthine (2 mM)/xanthine oxidase (0.7 U/mL) in 10 mM phosphate buffer (pH 7.4) is incubated for 20 min with 500 μlM of superoxide dismutase, quercetin, or compounds 2, 6, 7, 13, 14, and 20 in a total volume of 20 μL at 37° C., respectively. After incubating for 20 min, a 15 μL aliquot of mixture is loaded into 1.0% agarose gel containing ethidium bromide (0.05 μg/mL) in Tris-acetate-ethylenediaminetetraacetic acid (EDTA) buffer. The electrophoresis is carried out for 30 min at 100 V. Then the gels are illuminated with UV light and photographed.
ROS have been known to damage many biological macromolecules, for instance, with DNA being a significant target. The ability of 18β-GA derivatives to inhibit the DNA damage caused by O2^− (generated by xanthine (XA)/XO) is studied in vitro by agarose gel electrophoresis. […] For determined the antioxidant activities of these compounds, the radical scavenging activities and XO inhibitory activities of these compounds are analyzed.

xanthine oxidase (XO) [5] = test: Xanthine oxidase activity assay; assay type: biochemical; settings: xanthine as substrate, 25° C., 295 nm
Procedure: (§1) The xanthine oxidase activity with xanthine as the substrate is measured at 25° C., according to the protocol of Kong and associates (Cell Mol. […] After preincubation at 25° C. for 15 min, the reaction is initiated by addition of 60 μL of substrate solution (150 μM xanthine in the same buffer). The reaction is monitored at 295 nm. The xanthine oxidase activity is expressed as micromoles of uric acid per minute.

xanthine oxidase (XO) [6] = target: xanthine oxidase (XO) (Homo sapiens, UniProt P47989); test: Xanthine oxidase activity assay; assay type: biochemical; settings: xanthine as substrate, 25° C.
Procedure: as §1

[7] = read-out: IC50 (C) TNF-a formation in RAW 264.7, RAW 264.7 cells stimulated with LPS
[8] = Mus musculus, RAW264.7, read-out: IC50 (C) TNF-a formation in RAW 264.7

Sequence of xanthine oxidase (XO) (Homo sapiens, UniProt P47989) (P47989 whole entry, species assumed): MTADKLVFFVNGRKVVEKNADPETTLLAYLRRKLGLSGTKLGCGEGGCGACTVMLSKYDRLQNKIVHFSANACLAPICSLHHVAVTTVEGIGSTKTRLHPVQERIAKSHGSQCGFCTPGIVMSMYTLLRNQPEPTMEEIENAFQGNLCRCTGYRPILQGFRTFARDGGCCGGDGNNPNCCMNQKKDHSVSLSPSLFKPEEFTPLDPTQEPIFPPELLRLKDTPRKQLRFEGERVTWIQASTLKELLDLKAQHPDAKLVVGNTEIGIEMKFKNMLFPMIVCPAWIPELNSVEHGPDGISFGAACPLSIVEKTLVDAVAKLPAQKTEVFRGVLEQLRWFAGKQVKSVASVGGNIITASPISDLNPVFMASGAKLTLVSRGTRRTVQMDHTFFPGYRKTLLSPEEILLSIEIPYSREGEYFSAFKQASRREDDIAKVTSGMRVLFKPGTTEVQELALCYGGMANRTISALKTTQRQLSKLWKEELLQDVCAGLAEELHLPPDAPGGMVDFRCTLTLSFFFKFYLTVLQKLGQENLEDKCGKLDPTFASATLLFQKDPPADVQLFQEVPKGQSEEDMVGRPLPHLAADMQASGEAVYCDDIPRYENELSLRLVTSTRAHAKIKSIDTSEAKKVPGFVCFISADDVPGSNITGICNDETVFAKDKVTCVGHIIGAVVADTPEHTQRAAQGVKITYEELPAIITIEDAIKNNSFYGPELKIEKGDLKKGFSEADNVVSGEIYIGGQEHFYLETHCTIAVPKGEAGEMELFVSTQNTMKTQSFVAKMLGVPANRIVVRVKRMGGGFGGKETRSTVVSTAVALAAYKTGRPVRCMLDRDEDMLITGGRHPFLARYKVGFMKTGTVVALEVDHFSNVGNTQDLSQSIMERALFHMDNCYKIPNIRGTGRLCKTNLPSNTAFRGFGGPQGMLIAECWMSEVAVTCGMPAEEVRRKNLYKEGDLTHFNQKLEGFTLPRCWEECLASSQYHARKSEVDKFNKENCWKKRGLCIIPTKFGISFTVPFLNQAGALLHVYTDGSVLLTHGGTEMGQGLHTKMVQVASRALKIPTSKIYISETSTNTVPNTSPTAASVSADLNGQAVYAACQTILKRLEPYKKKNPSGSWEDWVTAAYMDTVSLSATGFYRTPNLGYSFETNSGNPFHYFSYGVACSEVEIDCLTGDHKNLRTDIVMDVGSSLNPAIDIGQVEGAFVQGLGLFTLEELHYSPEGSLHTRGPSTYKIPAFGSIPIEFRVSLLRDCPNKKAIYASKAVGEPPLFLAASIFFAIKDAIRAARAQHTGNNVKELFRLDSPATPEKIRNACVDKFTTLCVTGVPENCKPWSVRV
Sequence of xanthine oxidase (XO) (P47989 whole entry, species assumed): as above

Compound | IC50 [1, 7] | IC50 [2] | % of inhibition of NO2− accumulation (in parentheses) [2] | % of inhibition of superoxide anion formation, fMLP/CB (in parentheses) [3] | IC50 [3] | % of inhibition of TNF-a formation (in parentheses) [1] | % of inhibition of superoxide anion formation, PMA (in parentheses) [4] | IC50 [4] | also measured
COC(=O)C1(C)CCC2(C)CCC3(C)C(=CC(=O)C4C5(C)CCC(O)C(C)(C)C5CCC43C)C2C1 (stereo not drawn) [Compound 3] | 1.3 ± 0.4 µM |  |  |  |  |  |  |  | 
CC1(C(=O)O)CCC2(C)CCC3(C)C(=CC(=O)C4C5(C)CCC(=O)OC(C)(C)C5CCC43C)C2C1 (stereo not drawn) [Compound 5] | > 3 µM | > 3 µM | 3.0 ± 4.2% | 27.4 ± 9.2% | > 3 µM | −0.7 ± 2.7% | −8.2 ± 11.8% | > 3 µM | 
COC(=O)C1(C)CCC2(C)CCC3(C)C(=CC(=O)C4C5(C)CCC(=O)OC(C)(C)C5CCC43C)C2C1 (stereo not drawn) [Compound 6, 3,4 lactone 30 methyl ester] |  |  |  |  |  |  |  |  | protective effect on oxidative DNA damage caused by O2− (plasmid pBR322DNA): significant protective effects; IC50 ([4]; Neutrophil): 12.9 ± 1.8 µM; melting point: 166 to 171 °C; IC50 (xanthine oxidase (XO) [5]): 132 ± 2.7 µM
C=C(C)C1CCC2(C)C(C(=O)C=C3C4CC(C)(C(=O)O)CCC4(C)CCC32C)C1(C)CCC(=O)O (stereo not drawn) [Compound 7] |  |  |  |  | 7 ± 2 µM |  |  |  | protective effect on oxidative DNA damage caused by O2− (plasmid pBR322DNA): significant protective effects; inhibition of XO activity (xanthine oxidase (XO) [6]): weakly inhibit
C=C(C)C1CCC2(C)C(C(=O)C=C3C4CC(C)(C(=O)O)CCC4(C)CCC32C)C1(C)CCC(=O)OC (stereo not drawn) [Compound 8] | > 10 µM | > 10 µM | 29.6 ± 10.0% | 81.9 ± 7.4% | > 10 µM | 21.2 ± 8.7% | 7.4 ± 3.1% | > 10 µM | 
C=C(C)C1CCC2(C)C(C(=O)C=C3C4CC(C)(C(=O)O)CCC4(C)CCC32C)C1(C)CCC(=O)OC(C)C (stereo not drawn) [Compound 9] | > 30 µM | > 30 µM | 39.8 ± 5.4% | 48.8 ± 6.6% | > 1 µM | 38.4 ± 14.6% | −7.0 ± 3.0% | > 1 µM | 
C=C(C)C1CCC2(C)C(C(=O)C=C3C4CC(C)(C(=O)OC)CCC4(C)CCC32C)C1(C)CCC(=O)O (stereo not drawn) [Compound 10] | 26.1 ± 14.7 µM |  |  |  |  |  |  |  | 
C=C(C)C1CCC2(C)C(C(=O)C=C3C4CC(C)(C(=O)OC)CCC4(C)CCC32C)C1(C)CCC(=O)OC (stereo not drawn) [Compound 11] |  | > 30 µM | 44.3 ± 10.5% |  |  |  |  |  | inhibitory effect on NO accumulation in the media induced by LPS ([2]; each at 30 μM, RAW 264.7): about 40%
C=C(C)C1CCC2(C)C(C(=O)C=C3C4CC(C)(C(=O)OC(C)C)CCC4(C)CCC32C)C1(C)CCC(=O)OC (stereo not drawn) [Compound 12] | > 30 µM | > 30 µM | 43.0 ± 4.3% | −2.5 ± 11.9% | > 30 µM | 47.0 ± 1.3% | 28.7 ± 15.9% | > 10 µM | inhibitory effect on NO accumulation in the media induced by LPS ([2]; each at 30 μM, RAW 264.7): about 40%
C=C(C)C1CCC2(C)C(C(=O)C=C3C4CC(C)(C(=O)OCc5ccccc5)CCC4(C)CCC32C)C1(C)CCC(=O)OC (stereo not drawn) [Compound 13] |  |  | 44.5 ± 4.2% |  |  |  |  |  | IC50 ([2]; Mus musculus, RAW264.7): > 30 µM; inhibition at 30 µM ([2]; Mus musculus, RAW264.7, each at 30 μM, RAW 264.7, read-out: inhibitory effect on NO accumulation in the media induced by LPS): ~40%; protective effect on oxidative DNA damage caused by O2− (plasmid pBR322DNA): significant protective effects; IC50 [1, 8]: 13.7 ± 4.3 µM; IC50 ([4]; Neutrophil): 17 ± 1.5 µM; melting point: 32 to 38 °C; IC50 (xanthine oxidase (XO) [5]): 175 ± 0.9 µM
C=C(C)C1CCC2(C)C(C(=O)C=C3C4CC(C)(C(=O)Nc5ccccc5)CCC4(C)CCC32C)C1(C)CCC(=O)OC (stereo not drawn) [Compound 15] | 15.5 ± 3.2 µM |  |  |  |  |  |  |  | 
CC1(C(=O)OCc2ccccc2)CCC2(C)CCC3(C)C(=CC(=O)C4C5(C)CCC(=O)OC(C)(C)C5CCC43C)C2C1 (stereo not drawn) [Compound 16] | > 10 µM | > 10 µM | −2.3 ± 4.6% | −22.9 ± 7.6% | > 30 µM | 25.3 ± 9.9% | −10.7 ± 10.2% | > 30 µM | 
C=C(C)C1CCC2(C)C(C(=O)C=C3C4CC(C)(C(=O)OCc5ccccc5)CCC4(C)CCC32C)C1(C)CCC(=O)O (stereo not drawn) [Compound 17] | 2.3 ± 0.5 µM |  |  |  |  |  |  |  | 
CC(C)NC(=O)C1(C)CCC2(C)CCC3(C)C(=CC(=O)C4C5(C)CCC(=O)OC(C)(C)C5CCC43C)C2C1 (stereo not drawn) [Compound 18] | > 10 µM | > 10 µM | 30.0 ± 11.9% | 2.7 ± 12.5% | > 30 µM | 9.7 ± 4.7% | 48.2 ± 8.4% | > 30 µM | 
CC1(C(=O)Nc2ccccc2)CCC2(C)CCC3(C)C(=CC(=O)C4C5(C)CCC(=O)OC(C)(C)C5CCC43C)C2C1 (stereo not drawn) [Compound 19] | > 30 µM | > 30 µM | 20.5 ± 2.7% | −1.6 ± 4.4% | > 10 µM | 45.2 ± 14.6% | 26.9 ± 3.0% | > 3 µM | 
C=C(C)C1CCC2(C)C(C(=O)C=C3C4CC(C)(C(=O)NC(C)C)CCC4(C)CCC32C)C1(C)CCC(=O)O (stereo not drawn) [Compound 20] |  |  |  |  | 9.8 ± 5.2 µM |  |  |  | protective effect on oxidative DNA damage caused by O2− (plasmid pBR322DNA): significant protective effects; inhibition of XO activity (xanthine oxidase (XO) [6]): weakly inhibit
C=C(C)C1CCC2(C)C(C(=O)C=C3C4CC(C)(C(=O)Nc5ccccc5)CCC4(C)CCC32C)C1(C)CCC(=O)O (stereo not drawn) [Compound 21] | 27.7 ± 7.2 µM |  |  |  |  |  |  |  | 
CC(=N)NCc1cccc(CN)c1 [Compound 1400W, N-(3-aminomethyl) benzylacetamidine, reference compound] |  | 1.5 ± 0.2 µM |  |  |  |  |  |  | 
c1ccc2c(c1)[I+]c1ccccc1-2 [DPI, reference compound] |  |  |  |  | 2.7 ± 2 µM |  |  | 1.8 ± 0.4 µM | 
O=c1c(-c2ccc(O)cc2)coc2cc(O)cc(O)c12 [Genistein, genistein, reference compound] |  |  |  |  |  |  |  |  | IC50 [1, 8]: 26.5 ± 9.1 µM
